Laboratory results as given in patent US7863313B2, “Methods for the treatment of inflammatory diseases” (Cortical PTY LTD, priority 2003, dated 2011).
Values belong to the compound of their own block, whether it stands above or below them.

Experiments:
[1] = tested on: LPS-IFN—induced nitrite production; test: MIF-dependent nitrite production in peritoneal macrophages (Greiss assay); format: cell-based, mouse; conditions: for inhibition at 100 µM / inhibition at 33 µM: Mus musculus, Peritoneal macrophage, LPS 10 ng/ml + interferon-γ 10 units/ml, 24 h, read-out: % Inhibition of nitrite (± SD); for inhibition at 100 µM: compound 100 μM; for inhibition at 33 µM: compound 33 μM
Method: MIF is able to induce or facilitate the expression and release of a wide variety of pro-inflammatory and/or destructive molecules, including the release of macrophage nitric oxide (NO) ^(20). A compound with the ability to inhibit the cytokine or biological function of MIF might be expected to inhibit the activation of NO production by macrophages.
C57BL6/J male mice were injected intraperitoneally with 2 ml of thioglycolate. Three days later peritoneal macrophages were collected by lavaging the peritoneum with 3 ml of cold Hank's buffered saline solution. Cells from several mice were pooled, washed and re-suspended in DMEM supplemented with 5% FCS. Cells were plated in 96 well plastic tissue culture plates at 1×10^5 cells/well. Cells were treated in triplicate wells with compound or vehicle for 1 hour in a 5% CO2 incubator at 37° C. Cells were then treated with LPS (10 ng/ml) and recombinant human interferon-γ (10 units/ml) and incubated for 24 hours. After 24 hours, 50 μl of supernatant from each well was carefully removed and transferred to ELISA plates. The production of NO was measured by analysing the concentration of nitrite in culture supernatants, as measured by the Greiss assay ^(21). The results were calculated as the percentage inhibition of nitrite concentration in compound-treated cell culture supernatants, compared to that of vehicle-treated cells.

[2] = tested on: MIF-induced proliferation of mouse NIH 3T3 fibroblasts; test: MIF-induced proliferation in mouse fibroblasts (3H-thymidine incorporation); format: cell-based; conditions: for Mean cpm (3H-thymidine incorporation): Compound (10×^10−6M) + MIF 50 ng/ml, nil 1087, MIF + vehicle 1452
Method: The activity of compounds was studied in a bioassay utilising MIF-induced proliferation of mouse NIH 3T3 fibroblasts. […] NIH 3T3 cells were propagated in DMEM/10% foetal calf serum (FCS). Prior to experimentation, cells were seeded at 10^4 cells/well in 96-well plates in DMEM/10% FCS for 18 hours. The media was then replaced with DMEM/0.1% FCS and the cells incubated for a further 18 hr. At time point −1 hr, culture medium was replaced with DMEM/0.1% FCS and cells were treated with a compound of the invention at a final concentration of 10 μM or vehicle. At time point zero, cells were treated with MIF at a final concentration of 50 ng/ml. At time point 6 hr the cells were pulsed with 1 µCi/well of ^3H-thymidine. At time point 24 hours, cells were harvested using a semi-automated cell harvester. The radioactivity incorporated into DNA was determined by liquid scintillation counting, with results expressed as ^3H-thymidine incorporation (cpm). Statistical significance was analysed using the Mann-Whitney test.

[3] = tested on: LPS-induced serum IL-1, IL-6, and TNF; test: Mouse endotoxic shock model (serum cytokines by ELISA); format: in vivo; conditions: for effect on serum IL-1: 5 mg/kg; for IL-1 (pg/ml), serum: 5 mg/kg i.p. 24 h and 1 h before LPS 5 mg/kg, saline 175 ± 43, LPS plus vehicle 428 ± 168; for IL-1 (pg/ml), serum / IL-6 (ng/ml), serum / TNF (pg/ml), serum: 1.5 h after LPS; for effect on serum IL-6 / effect on serum TNF: 15 mg/kg; for IL-6 (ng/ml), serum / TNF (pg/ml), serum: 15 mg/kg i.p. 24 h and 1 h before LPS 5 mg/kg; for IL-6 (ng/ml), serum: saline 4 ± 4, LPS plus vehicle 118 ± 30; for TNF (pg/ml), serum: saline 189 ± 69, LPS plus vehicle 2022 ± 1245
Description: The activity of compounds was studied in the murine endotoxic shock model. In this model, features of shock, characterised by increased serum levels of cytokines such as IL-1, tumor necrosis factor (TNF), and interleukin 6 (IL-6), are induced by the injection of bacterial lipoloysaccharide (LPS). The in vivo production of IL-1, IL-6, and TNF in response to endotoxin has been previously shown to be dependent on MIF ^(23).
Groups of four mice were used in each experiment. Endotoxaemia was induced by intra-peritoneal injection of lipopolysaccharide (LPS) (5 mg/kg) in 300 μl saline. Mice injected with saline alone were used as a control group. Treatments were administered by intra-peritoneal injection at intervals 24 hours and 1 hour before intra-peritoneal LPS injection. Mice were treated with saline, compounds dissolved in DMSO/saline vehicle at a dose of 5-15 mg/kg body weight, or vehicle (containing matching concentrations of DMSO).
After 1.5 hours mice were humanely killed by CO2 inhalation then neck dislocation. Serum was obtained from blood obtained by cardiac puncture prior to death and measured for the concentration of cytokines including IL-1, TNF, and/or IL-6, by ELISA. Statistical significance was analysed using the Mann-Whitney test.

[4] = tested on: IL-1 induced COX-2 expression; test: Combination of MIF-antagonist with glucocorticoid: IL-1 induced fibroblast COX-2 expression; format: cell-based, human; conditions: IL-1 + dexamethasone 1 nM alone; control 0.7400, IL-1 49.37
Method: S112 human dermal fibroblasts were propagated in RPMI/10% foetal calf serum (FCS). Prior to experimentation, cells were seeded at 2×10^5 cells/ml in RPMI/0.1% BSA for 18 hours. Cells were treated with compound at 1-100 μM and 30 minutes later with recombinant human IL-1 (0.1 ng/ml). After 6 hours, cells were collected and intracellular COX-2 protein determined by permeabilisation flow cytometry, as described by Sampey et al ^(18). Cells permeabilised with 0.2% saponin were sequentially labelled with a mouse anti-human COX-2 monoclonal antibody and with sheep-anti-mouse F(ab)2 fragment labelled with fluoroscein isothiocyanate. Cellular fluorescence was determined using a flow cytometer. At least 5000 events were counted for each reading, each of which was performed in duplicate, and the results expressed in mean fluorescence intensity (MFI) after subtraction of negative control-labelled cell fluorescence.
The above in vitro assay (Biological Example 2) for analysing the effect of MIF antagonists on IL-1 induced COX-2 expression was performed using 2-(2-hydroxyethoxy)-2-(4′-hydroxy-3′-methylphenyl)-1,3-dioxolane (Compound 1) (50 μM), dexamethasone (1 nM) or a combination of dexamethasone (1 nM) and Compound 1 (50 μM). COX-2 expression was expressed as the mean fluorescence intensity (MFI) as measured by flow cytometry, after deduction of the MFI for control-labelled samples, as described by Sampey et al. ^(18).

melting point: 107 °C
SMILES: Brc1ccc(C2NCCS2)cc1 (stereo not shown) [Compound 4, 2-(4-Bromophenyl)-1,3-thiazolane]
inhibition at 100 µM [1]: 22 ± 1%

melting point: 94 to 95 °C
SMILES: COc1ccc(C2NCCS2)cc1 (stereo not shown) [Compound 5, 2-(4-Methoxyphenyl)-1,3-thiazolane]
inhibition at 100 µM [1]: 22 ± 2%

melting point: 158 to 161 °C
SMILES: COc1cc(C2NCCS2)ccc1O (stereo not shown) [Compound 7, 2-(4-Hydroxy-3-methoxyphenyl)-1,3-thiazolane]
Mean cpm (3H-thymidine incorporation) [2]: 1281 cpm
inhibition at 100 µM [1]: 15 ± 1%

melting point: 54 to 56 °C
SMILES: COc1ccc(C2NCCS2)cc1OC (stereo not shown) [Compound 8, 2-(3,4-Dimethoxyphenyl)-1,3-thiazolane]
Mean cpm (3H-thymidine incorporation) [2]: 1238 cpm

SMILES: COc1ccc(-c2cnn(CCC(C)C)c2)cc1 [Compound 12, 4-(4-Methoxyphenyl)-1-(3-methylbutyl)-1H-pyrazole]
effect on serum IL-1 [3]: inhibitory effect
IL-1 (pg/ml), serum [3]: 286 ± 102 pg/mL
effect on serum IL-6 [3]: inhibitory effect
effect on serum TNF [3]: inhibitory effect
IL-6 (ng/ml), serum [3]: 80 ± 16 ng/mL
TNF (pg/ml), serum [3]: 1636 ± 468 pg/mL
inhibition at 100 µM [1]: 78 ± 9%

SMILES: Cc1ccc(-c2cnn(CCC(C)C)c2)cc1 [Compound 13, 1-(3-Methylbutyl)-4-(4-methylphenyl)-1H-pyrazole]
Mean cpm (3H-thymidine incorporation) [2]: 1015 cpm
effect on serum IL-1 [3]: inhibitory effect
IL-1 (pg/ml), serum [3]: 305 ± 51 pg/mL
effect on serum IL-6 [3]: inhibitory effect
effect on serum TNF [3]: inhibitory effect
IL-6 (ng/ml), serum [3]: 92 ± 7 ng/mL
TNF (pg/ml), serum [3]: 1067 ± 191 pg/mL
inhibition of LPS-IFN—induced nitrite production ([1]; 0.5-100 μM, FIG. 8): dose-responsive inhibition
inhibition at 100 µM [1]: 91 ± 8%

SMILES: c1csc(-c2ccc(C3NCCS3)cc2)c1 (stereo not shown) [Compound 15, 2-[4-(2-Thienyl)phenyl]-1,3-thiazolane]
Mean cpm (3H-thymidine incorporation) [2]: 955.6 cpm
inhibition at 100 µM [1]: 12 ± 1%

SMILES: CCCCCCC1(c2ccc(C)cc2)SCCS1 [Compound 17, 2-Hexyl-2-(4-methylphenyl)-1,3-dithiolane]
Mean cpm (3H-thymidine incorporation) [2]: 933.2 cpm
inhibition of LPS-induced serum IL-6 ([3]; 5 and 15 mg/kg, FIG. 10b): marked inhibition
inhibition of LPS-induced serum TNF ([3]; 5 and 15 mg/kg, FIG. 10c): marked inhibition
inhibition of LPS-induced serum IL-1 ([3]; 5 and 15 mg/kg, statistically significant P<0.05, FIG. 10a): marked inhibition
inhibition at 100 µM [1]: 69 ± 2%

SMILES: Cc1ccc(C2(C)SCCS2)cc1 [Compound 18, 2-Methyl-2-(4-methylphenyl)-1,3-dithiolane]
significant inhibition of MIF-induced proliferation ([2]; 10 μM, P<0.05, FIG. 9): significant inhibition
inhibition at 100 µM [1]: 40 ± 1%

SMILES: CC1(c2ccc(Cl)cc2)SCCS1 [Compound 24, 2-(4-Chlorophenyl)-2-methyl-1,3-dithiolane]
Mean cpm (3H-thymidine incorporation) [2]: 1318 cpm
inhibition at 33 µM [1]: 21 ± 2%

SMILES: CC1(c2ccc([N+](=O)[O-])cc2)OCCO1 [Compound 25, 2-(4-Nitrophenyl)-2-methyl-1,3-dioxolane]
Mean cpm (3H-thymidine incorporation) [2]: 1117 cpm
inhibition at 33 µM [1]: 7 ± 1%

SMILES: COc1cc(C2OCCS2)ccc1O (stereo not shown) [Compound 29, 2-Methoxy-4-(1,3-oxathiolan-2-yl)phenol]
Mean cpm (3H-thymidine incorporation) [2]: 1157 cpm
inhibition at 100 µM [1]: 9 ± 1%

SMILES: CC1CSC(c2ccc(C#N)cc2)O1 (stereo not shown) [Compound 32, 4-(5-Methyl-1,3-oxathiolan-2-yl)benzonitrile]
Mean cpm (3H-thymidine incorporation) [2]: 1196 cpm
inhibition at 100 µM [1]: 14 ± 4%

SMILES: c1csc(-c2ccc(C3OCCS3)cc2)c1 (stereo not shown) [Compound 33, 2-(4-Thien-2-ylphenyl)-1,3-oxathiolane]
effect on serum IL-1 [3]: inhibitory effect
IL-1 (pg/ml), serum [3]: 360 ± 72 pg/mL
effect on serum IL-6 [3]: inhibitory effect
effect on serum TNF [3]: inhibitory effect
IL-6 (ng/ml), serum [3]: 95 ± 14 ng/mL
TNF (pg/ml), serum [3]: 1152 ± 317 pg/mL
inhibition at 100 µM [1]: 47 ± 4%

SMILES: COc1ccc(-c2ccc(OC(F)(F)F)cc2)cc1 [Compound 36, 4-Methoxy-4′-(trifluoromethoxy)-1,1′-biphenyl]
Mean cpm (3H-thymidine incorporation) [2]: 1033 cpm
inhibition at 100 µM [1]: 57 ± 1%

SMILES: COc1ccc(-c2ccc(C(F)(F)F)cc2)c(OC)n1 [Compound 37, 2,6-Dimethoxy-3-[4-(trifluoromethyl)phenyl]pyridine]
Mean cpm (3H-thymidine incorporation) [2]: 1045 cpm
inhibition at 100 µM [1]: 24 ± 1%

SMILES: N#Cc1ccc(C2OCCO2)cc1 [Compound 40, 4-(1,3-Dioxolan-2-yl)benzenecarbonitrile]
Mean cpm (3H-thymidine incorporation) [2]: 1143 cpm
inhibition at 100 µM [1]: 7 ± 2%

SMILES: CCC1(CC)COC(c2ccc(F)c(C#N)c2)OC1 [Compound 43, 5-(5,5-Diethyl-1,3-dioxan-2-yl)-2-fluorobenzenecarbonitrile]
Mean cpm (3H-thymidine incorporation) [2]: 1106 cpm
inhibition at 100 µM [1]: 34 ± 1%

SMILES: C[C@@H]1C[C@H]2[C@@H]3CCC4=CC(=O)C=C[C@]4(C)[C@@]3(F)[C@@H](O)C[C@]2(C)[C@@]1(O)C(=O)CO [DEX, dexamethasone, reference compound]
Mean COX-2 expression (MFI) [4]: 15.13 MFI
